Data set [1] can be described thus: in vitro. The conditions noted are these: pH 7.4.
For another data set, the system named is EpiAirway tissues. The conditions noted are these: EpiAirway tissues after 120 minutes.
For a further data set, the system named is rhinovirus colds. The note with it: intranasal administration in a phosphate buffer vehicle, patients; cited from earlier work.
Data set [2] in a line: in vitro. The conditions noted are these: human; for recovery at 120 min: pH 7.4; for Papp at 120 min: apical dosing.
Method: (§1) EpiAirway tissues, plated in 24-well plates, and accompanying culture medium and assay buffer solutions, were purchased from MatTek Corporation (Ashland, Mass.). According to the EpiAirway AIR-100 Use Protocol provided by MatTek, the tissues were returned to culture immediately upon receipt. In a tissue culture hood, using sterile technique, 1.0 mL of cold medium (AIR-100-ASY) was dispensed into each well of the 6-well plate (n=3) and one tissue insert was transferred to each of the wells. The apical surface of the tissue was exposed to the air (no medium was added to the insert). The tissues were equilibrated overnight at 37° C. in a 5% CO2 incubator. The culture medium was then replaced with fresh, pre-warmed medium until use.
(§2) The unidirectional permeation experiment was conducted according to protocol 18APCIP2 and relevant SOPs of Absorption Systems. Prior to the permeability assay, the culture medium in the plate was aspirated; and ˜1 mL of Dulbecco's phosphate-buffered saline (DPBS) was added to the well to remove any remaining residue of culture medium from the underside of the insert. The tissues were transferred to a 24-well plate with DPBS (750 μL) in each well as receiver, and dosing solution (400 μL) was added to each insert. A 100 μL aliquot was immediately removed as the 0-minute donor sample. Receiver samples (200 μL) were collected at 30, 60, and 120 minutes, replaced with an equal volume of fresh pre-warmed blank buffer at 30 and 60 minutes. The donor side was sampled (100 μL) at 0 and 120 minutes. The assay plate was placed in a humidified CO2 incubator at 37° C. during the assay period.
(§3) After 120 minutes, the tissues were rinsed with DPBS and gently dried with tissue wipes after aspiration of the assay buffer. The insert membranes with tissues attached were carefully removed from the insert apparatus, placed in a tared centrifuge tube, and weighed.
(§4) The apparent permeability coefficient (Papp) and recovery were calculated as follows:
Papp=(dCr/dt)×Vr/(A×Cini) (1)
(§5) Recovery (%)=[((Cr,final×Vr)+(Cd,final×Vd))/(Cini×Vd)]×100 (2)
(§6) Recovery (%)=[((Cr,final×Vr)+(Cd,final×Vd)+(Tissue Accumulation))/(Cini×Vd)]×100 (3)
(§7) where, • dCr/dt is the slope of cumulative receiver concentration vs. time in μM s^−1; • Vr is the volume of the receiver compartment; • Vd is the volume of the donor compartment; • A is the diffusional area of the membrane; • Cini is the donor concentration at 0 minutes in μM; • CD,final is the donor concentration at 120 minutes in μM; • Cr,final is the receiver concentration at 120 minutes in μM.
(§8) With DPBS, pH 7.4 used on both the donor and receiver sides, permeability was initiated with addition of 0.4 mL of dosing solution into the inserts and of 0.75 mL of blank buffer into the wells of the assay plate. The assay was performed for 120 minutes in a humidified incubator at 37° C.

Method for EpiAirway tissues: as §1, §2, §3, §4
Papp=(dCr/dt)×Vr/(A×Cini) (1)
as §5, §6, §7, §8

Compound `CN(C)CCOC(c1ccccc1)c1ccccc1` [Diphenhydramine] showed a recovery at 120 min, 100 μM in the data set “in vitro [1]” of 86.3%. The “Tissue Accumulation Average ± SD” value in the data set on EpiAirway tissues is reported as 0.212 ± 0.0222 nmol/mg. The “Tissue Accumulation R1” value in the data set on EpiAirway tissues (replicate R1) stood at 0.188 nmol/mg. Besides, the “Tissue Accumulation R3” value with EpiAirway tissues (replicate R3) amounted to 0.218 nmol/mg. Besides, the “therapeutic effect in reducing signs and symptoms of rhinovirus colds” value in the data set with rhinovirus colds is “no therapeutic effect”. The compound also displayed a recovery at 120 min in “in vitro [2]” of 103%.

One may read the Papp as the rate of passage across a membrane or cell layer, normalised by area and donor concentration. In the case of `Cn1c(=O)c2c(ncn2C)n(C)c1=O` [Caffeine], the recovery at 120 min in the data set “in vitro [2]” came out at 96.9%. For the same compound, the Papp at 120 min was 29.1 ×10⁻⁶ cm/s in the data set “in vitro [2]” (pH 7.4, Papp Average ± SD, EpiAirway tissues, DPBS pH 7.4, diphenhydramine 100 μM, atenolol 100 μM, caffeine 50 μM co-dosed); 30.9 ×10⁻⁶ cm/s in “in vitro [2]” (pH 7.4, Papp R1, EpiAirway tissues, DPBS pH 7.4, 120 minutes, 37° C., replicate R1); 28.2 ×10⁻⁶ cm/s in the data set “in vitro [2]” (pH 7.4, Papp R2, EpiAirway tissues, DPBS pH 7.4, replicate R2); 28.2 ×10⁻⁶ cm/s in “in vitro [2]” (pH 7.4, Papp R3, EpiAirway tissues, DPBS pH 7.4, replicate R3).

On to `CC(C)NCC(O)COc1ccc(CC(N)=O)cc1` (stereo not drawn) [Atenolol], for which the recovery at 120 min in the data set “in vitro [2]” amounted to 98.5%.

Values taken from patent US20220160656A1, “INTRANASALLY ADMINISTERED ANTIHISTAMINES AND USES THEREOF” (DBBH, LLC, priority 2019, published 2022).
